Laboratory results: PMC3629230, “Permeability Enhancers Dramatically Increase Zanamivir Absolute Bioavailability in Rats: Implications for an Orally Bioavailable Influenza Treatment” (PLoS ONE, 2013)
Where two headings read alike, the source gives them in different places.

Experiments:
[1] = test system: neuraminidase; conditions: more potent; cited from earlier work
[2] = cited from earlier work
[3] = test system: Caco-2 cell monolayers; assay: Unidirectional (A-to-B) permeability of zanamivir across Caco-2 cell monolayers with and without excipients; format: in vitro ADME; conditions: initial screening, glycerol and Capmul MCM L8, results not shown
Protocol: Caco-2 cells were obtained from American Type Culture Collection (Rockville, MD). Stock cultures were maintained in flasks with DMEM medium supplemented with 10% FBS, 1% non-essential amino acids, 1 mmol/L sodium pyruvate, 100 IU/mL penicillin, and 100 µg/mL streptomycin in a humidified incubator (37°C, 5% CO2). Cells were harvested by trypsinization and seeded at 60,000 cells/cm^2 onto Costar Transwell® 12-well dual-chamber plates with collagen-coated, microporous polycarbonate membranes (1.13 cm^2 insert area, 0.4 µm pore size; Corning Life Sciences, Acton, MA) for permeability studies. The culture medium was changed three times per week.
Caco-2 cell monolayers that had grown for at least 20 days were subjected to batch quality control testing in which permeation rates were measured for atenolol, digoxin, estrone-3-sulfate, lucifer yellow (LY), and propranolol. In addition, the transepithelial electrical resistance (TEER) across each experimental monolayer was tested prior to an experiment.
Unidirectional (A-to-B) permeability of zanamivir was determined at 15 µg/mL in the absence and presence of varying concentrations of excipients in Caco-2 cell monolayers. The assay buffer was Hanks' balanced salt solution (HBSS) supplemented with 10 mM 4-(2-hydroxyethyl)-1-piperazineethanesulfonic acid (HEPES) and 15 mM D-glucose (HBSSg), pH 7.4. The dosing solutions on the apical side (0.5 mL) contained either zanamivir and excipients at each concentration being tested or zanamivir only (n = 4), while the receiver buffer in the bottom well (1.5 mL) was always excipient-free. The Caco-2 cell monolayers were incubated for 120 min in a humidified incubator (37°C, 5% CO2) after dosing in the apical chambers. Aliquots (200 µL each) of receiver buffer were sampled at 60 min, 90 min, and 120 min after dosing, with replacement by the same volume of blank buffer (at 60 min and 90 min). Donors were sampled at 0 and 120 min.
Experimental samples were identically treated.

Compound	Oral bioavailability ([2]; in vivo, po)	Oral bioavailability [2]	Absolute bioavailability ([2]; in vivo)	other results
CCC(CC)OC1C=C(C(=O)O)CC(NC(=N)N)C1NC(C)=O (stereo not shown) [GS4116 carboxylate]	under 5%			Inhibitor potency relative to oseltamivir carboxylate [1]: 10 fold
CCOC(=O)C1=CC(OC(CC)CC)C(NC(C)=O)C(NC(=N)N)C1 (stereo not shown) [GL4116 ethyl ester]	under 5%			
CCC(CC)[C@H](NC(C)=O)[C@@H]1[C@H](O)[C@@H](C(=O)O)C[C@H]1N=C(N)N [peramivir]		under 2%		Drug transport across Caco-2 cell monolayers with enhancers [3]: substantially increased drug transport
CCC(CC)O[C@@H]1C=C(C(=O)O)C[C@H](N)[C@H]1NC(C)=O [oseltamivir carboxylate]	2%		under 5%	
CO[C@@H]([C@@H]1OC(C(=O)O)=C[C@H](NC(=N)N)[C@H]1NC(C)=O)[C@H](O)CO [laninamivir]		under 2%		
CCOC(=O)C1=C[C@@H](OC(CC)CC)[C@H](NC(C)=O)[C@@H](N)C1 [oseltamivir]	at least 35%		≥ 35%	
